{"source": "patent US8192962B2", "about": "“Processes for detecting toxic substances” (Daikin Industries, Ltd., priority 2001, dated 2012)", "system": "Energy system protein genes", "assay": "DNA chip mRNA expression in yeast, energy system protein genes (Table 4)", "assay_type": "cell-based, Saccharomyces cerevisiae S288C", "method_in_brief": "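Cells were grown at 25° C. in YPD, treated at logarithmic phase for 2 h with a chemical at a concentration inhibiting growth but not causing death, and compared with untreated cultures. Labeled cDNA was hybridized to a DNA chip carrying all yeast genes, and the expression ratio was taken from scanner fluorescence.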", "data": [{"smiles": "C[S+](C)[O-]", "note": "[(15), dimethylsulfoxide]", "values": [{"measurement": "The level of expressed mRNA in the presence of chemical substance/The level of expressed mRNA in the absence of chemical substance", "setting": "yeast gene YAL038W", "value": 3.1}, {"measurement": "The level of expressed mRNA in the presence of chemical substance/The level of expressed mRNA in the absence of chemical substance", "setting": "yeast gene YAL054C", "value": 0.9}, {"measurement": "The level of expressed mRNA in the presence of chemical substance/The level of expressed mRNA in the absence of chemical substance", "setting": "yeast gene YAL060W", "value": 0.9}, {"measurement": "The level of expressed mRNA in the presence of chemical substance/The level of expressed mRNA in the absence of chemical substance", "setting": "yeast gene YBL058W, cells incubated two hours with the chemical substance", "value": 1.8}, {"measurement": "The level of expressed mRNA in the presence of chemical substance/The level of expressed mRNA in the absence of chemical substance", "setting": "yeast gene YBR126C", "value": 1.0}, {"measurement": "The level of expressed mRNA in the presence of chemical substance/The level of expressed mRNA in the absence of chemical substance", "setting": "yeast gene YBR145W", "value": 1.2}, {"measurement": "The level of expressed mRNA in the presence of chemical substance/The level of expressed mRNA in the absence of chemical substance", "setting": "yeast gene YBR196C", "value": 1.9}, {"measurement": "The level of expressed mRNA in the presence of chemical substance/The level of expressed mRNA in the absence of chemical substance", "setting": "yeast gene YBR299W", "value": 0.6}, {"measurement": "The level of expressed mRNA in the presence of chemical substance/The level of expressed mRNA in the absence of chemical substance", "setting": "yeast gene YCL040W", "value": 3.4}, {"measurement": "The level of expressed mRNA in the presence of chemical substance/The level of expressed mRNA in the absence of chemical substance", "setting": "yeast gene YCR005C", "value": 0.7}, {"measurement": "The level of expressed mRNA in the presence of chemical substance/The level of expressed mRNA in the absence of chemical substance", "setting": "yeast gene YCR012W", "value": 1.4}, {"measurement": "The level of expressed mRNA in the presence of chemical substance/The level of expressed mRNA in the absence of chemical substance", "setting": "yeast gene YCR107W", "value": 4.8}, {"measurement": "The level of expressed mRNA in the presence of chemical substance/The level of expressed mRNA in the absence of chemical substance", "setting": "yeast gene YDL067C, cells incubated two hours with the chemical substance", "value": 0.7}, {"measurement": "The level of expressed mRNA in the presence of chemical substance/The level of expressed mRNA in the absence of chemical substance", "setting": "yeast gene YDL078C, cells incubated two hours with the chemical substance", "value": 0.5}, {"measurement": "The level of expressed mRNA in the presence of chemical substance/The level of expressed mRNA in the absence of chemical substance", "setting": "yeast gene YDL085W, cells incubated two hours with the chemical substance", "value": 0.7}, {"measurement": "The level of expressed mRNA in the presence of chemical substance/The level of expressed mRNA in the absence of chemical substance", "setting": "yeast gene YDL174C", "value": 0.6}, {"measurement": "The level of expressed mRNA in the presence of chemical substance/The level of expressed mRNA in the absence of chemical substance", "setting": "yeast gene YDL181W, cells incubated two hours with the chemical substance", "value": 0.4}, {"measurement": "The level of expressed mRNA in the presence of chemical substance/The level of expressed mRNA in the absence of chemical substance", "setting": "yeast gene YDL243C", "value": 4.2}, {"measurement": "The level of expressed mRNA in the presence of chemical substance/The level of expressed mRNA in the absence of chemical substance", "setting": "yeast gene YDR178W, cells incubated two hours with the chemical substance", "value": 0.7}, {"measurement": "The level of expressed mRNA in the presence of chemical substance/The level of expressed mRNA in the absence of chemical substance", "setting": "yeast gene YDR231C", "value": 1.0}, {"measurement": "The level of expressed mRNA in the presence of chemical substance/The level of expressed mRNA in the absence of chemical substance", "setting": "yeast gene YDR298C, cells incubated two hours with the chemical substance", "value": 0.8}, {"measurement": "The level of expressed mRNA in the presence of chemical substance/The level of expressed mRNA in the absence of chemical substance", "setting": "yeast gene YDR380W", "value": 2.4}, {"measurement": "The level of expressed mRNA in the presence of chemical substance/The level of expressed mRNA in the absence of chemical substance", "setting": "yeast gene YDR529C, cells incubated two hours with the chemical substance", "value": 0.5}, {"measurement": "The level of expressed mRNA in the presence of chemical substance/The level of expressed mRNA in the absence of chemical substance", "setting": "yeast gene YEL020C", "value": 1.4}, {"measurement": "The level of expressed mRNA in the presence of chemical substance/The level of expressed mRNA in the absence of chemical substance", "setting": "yeast gene YEL039C, cells incubated two hours with the chemical substance", "value": 0.4}, {"measurement": "The level of expressed mRNA in the presence of chemical substance/The level of expressed mRNA in the absence of chemical substance", "setting": "yeast gene YEL071W, cells incubated two hours with the chemical substance", "value": 1.6}, {"measurement": "The level of expressed mRNA in the presence of chemical substance/The level of expressed mRNA in the absence of chemical substance", "setting": "yeast gene YER061C, cells incubated two hours with the chemical substance", "value": 0.8}, {"measurement": "The level of expressed mRNA in the presence of chemical substance/The level of expressed mRNA in the absence of chemical substance", "setting": "yeast gene YER178W", "value": 1.8}, {"measurement": "The level of expressed mRNA in the presence of chemical substance/The level of expressed mRNA in the absence of chemical substance", "setting": "yeast gene YFL057C", "value": 3.1}, {"measurement": "The level of expressed mRNA in the presence of chemical substance/The level of expressed mRNA in the absence of chemical substance", "setting": "yeast gene YFR053C", "value": 0.6}, {"measurement": "The level of expressed mRNA in the presence of chemical substance/The level of expressed mRNA in the absence of chemical substance", "setting": "yeast gene YGL062W", "value": 2.7}, {"measurement": "The level of expressed mRNA in the presence of chemical substance/The level of expressed mRNA in the absence of chemical substance", "setting": "yeast gene YGL191W, cells incubated two hours with the chemical substance", "value": 0.7}, {"measurement": "The level of expressed mRNA in the presence of chemical substance/The level of expressed mRNA in the absence of chemical substance", "setting": "yeast gene YGL253W", "value": 0.8}, {"measurement": "The level of expressed mRNA in the presence of chemical substance/The level of expressed mRNA in the absence of chemical substance", "setting": "yeast gene YGR008C", "value": 1.5}, {"measurement": "The level of expressed mRNA in the presence of chemical substance/The level of expressed mRNA in the absence of chemical substance", "setting": "yeast gene YGR062C, cells incubated two hours with the chemical substance, 25° C., YPD medium", "value": 0.5}, {"measurement": "The level of expressed mRNA in the presence of chemical substance/The level of expressed mRNA in the absence of chemical substance", "setting": "yeast gene YGR087C, cells incubated two hours with the chemical substance", "value": 3.5}, {"measurement": "The level of expressed mRNA in the presence of chemical substance/The level of expressed mRNA in the absence of chemical substance", "setting": "yeast gene YGR174C, cells incubated two hours with the chemical substance", "value": 0.7}, {"measurement": "The level of expressed mRNA in the presence of chemical substance/The level of expressed mRNA in the absence of chemical substance", "setting": "yeast gene YGR192C", "value": 1.9}, {"measurement": "The level of expressed mRNA in the presence of chemical substance/The level of expressed mRNA in the absence of chemical substance", "setting": "yeast gene YGR207C", "value": 0.6}, {"measurement": "The level of expressed mRNA in the presence of chemical substance/The level of expressed mRNA in the absence of chemical substance", "setting": "yeast gene YGR244C", "value": 2.0}, {"measurement": "The level of expressed mRNA in the presence of chemical substance/The level of expressed mRNA in the absence of chemical substance", "setting": "yeast gene YGR254W", "value": 2.4}, {"measurement": "The level of expressed mRNA in the presence of chemical substance/The level of expressed mRNA in the absence of chemical substance", "setting": "yeast gene YGR256W", "value": 2.7}, {"measurement": "The level of expressed mRNA in the presence of chemical substance/The level of expressed mRNA in the absence of chemical substance", "setting": "yeast gene YHL008C", "value": 1.8}, {"measurement": "The level of expressed mRNA in the presence of chemical substance/The level of expressed mRNA in the absence of chemical substance", "setting": "yeast gene YHR174W", "value": 2.0}, {"measurement": "The level of expressed mRNA in the presence of chemical substance/The level of expressed mRNA in the absence of chemical substance", "setting": "yeast gene YHR179W", "value": 2.7}, {"measurement": "The level of expressed mRNA in the presence of chemical substance/The level of expressed mRNA in the absence of chemical substance", "setting": "yeast gene YIL045W", "value": 0.6}, {"measurement": "The level of expressed mRNA in the presence of chemical substance/The level of expressed mRNA in the absence of chemical substance", "setting": "yeast gene YIL111W", "value": 1.1}, {"measurement": "The level of expressed mRNA in the presence of chemical substance/The level of expressed mRNA in the absence of chemical substance", "setting": "yeast gene YIL160C", "value": 5.6}, {"measurement": "The level of expressed mRNA in the presence of chemical substance/The level of expressed mRNA in the absence of chemical substance", "setting": "yeast gene YIL172C", "value": 1.4}, {"measurement": "The level of expressed mRNA in the presence of chemical substance/The level of expressed mRNA in the absence of chemical substance", "setting": "yeast gene YIR031C, cells incubated two hours with the chemical substance", "value": 0.8}]}]}
